Where two headings read alike, the source gives them in different places.
Target: T1, CIII2CIV2 (Complex III2IV2, cytochrome bcc-aa3 supercomplex) (Mycolicibacterium smegmatis, UniProt A0R052+I7GD61)
T1 construct: gene MSMEG_4263; CIII2CIV2 in IMVs from strain QcrB-3×FLAG (3×FLAG tag at the C terminus of the QcrB subunit); with other subunits of the CIII2CIV2 supercomplex
Test: succinate-driven acidification of inverted membrane vesicles (ACMA fluorescence); no inhibition of ATP-driven acidification
Type: biochemical

Row | SMILES | IC50 (read-out: IC50) | IC50
1 | Cc1c(OCC(F)(F)F)ccnc1CSc1nc2ccccc2[nH]1 [LPZS, lansoprazole sulfide] | ~860 nM | –
2 | CCc1nc2ccc(Cl)cn2c1C(=O)NCc1ccc(N2CCC(c3ccc(OC(F)(F)F)cc3)CC2)cc1 [Q203, telacebec] | – | ~140 nM

— paper PMC10770618, “A simple assay for inhibitors of mycobacterial oxidative phosphorylation” (The Journal of Biological Chemistry, 2023)
